Reference: patent publication US20190070208A1, “USE OF TRIACETYL-3-HYDROXYPHENYLADENOSINE IN PREPARING PHARMACEUTICALS FOR TREATMENT OF ATHEROSCLEROSIS” (priority 2016, published 2019)
Several values for one entry are separate records, joined by “and”; a condition that tells them apart may be missing. Identical values can stand only once.

Assays:
Assay type in all cases: in vivo
Parameters in all cases: unit not given here
[1] = system: circulating blood mononuclear cells; test: Circulating blood mononuclear cells of high-fat-fed Syrian golden hamsters (whole blood cell analyzer); conditions: gavage twice a day, high-fat feedstuff hamsters, individual animal values (n=13)
Procedure: […] Syrian golden hamsters (LVG hamsters, introduced from Charles River Laboratories) aged 6-8 weeks, weighing 90-120 g, male, SPF grade and purchased from Beijing Vital River Laboratory Animal Technology Co., Ltd.
After 7 days of adaptive feeding, animals were randomly divided into a normal control group (n=13), a high-fat feedstuff group (n=13), an IMMH007 low-dose group (50 mg/kg, n=13), an IMMH007 medium-dose group (100 mg/kg, n=13), and an IMMH007 high-dose group (200 mg/kg, n=13), and they were administered twice a day by gavage. The animals were fed in the Second Department of Animal Experiment Center of the Institute of Materia Medica (IMM) at Chinese Academy of Medical Sciences (CAMS); the feeding condition was SPF grade, the temperature was 21±2 DEG C, relative humidity was 50±5%, lighting cycle was 12/12, and 5 per cage. The normal group was fed with normal basal feedstuff, and the high-fat feedstuff group was fed with high fat feedstuff (79.8% of basal feedstuff, 20% of lard, and 0.2% of cholesterol), and the animals were free to take food and drink. The feedstuff was produced by Beijing HFK Bioscience Co., Ltd.
The animals were fasted for 12 hours, and about 200 ul of blood was taken from the canthus of each eye, the blood was dissolved in 30ul of EDTA-2K anticoagulant (20g/L, prepared with normal saline), mixed slightly to avoid coagulation, and the whole blood cells were analyzed by a whole blood cell analyzer.

[2] = system: circulating blood inflammatory mononuclear cells (Ly6C^hi); test: Circulating blood inflammatory (Ly6Chi) mononuclear cells of high-fat-fed apoE-/- mice (flow cytometry); conditions: gavage once a day, high-fat diet apoE-/- mice
Procedure: (§1) ApoE-/-mice (C57BL background), 5-7 weeks old, body weight 18-22 g, male, SPF grade; Purchased from Beijing institute of Laboratory Animal Science.
(§2) After 7 days of adaptive feeding, animals were randomly divided into a high-fat feedstuff group (n=7), an MMH007 low-dose group (50 mg/kg, n=7), an IMMH007 medium-dose group (100 mg/kg, n=7), and an IMMH007 high-dose group (200 mg/kg, n=9), and they were administered once a day by gavage. The animals were fed in the Second Department of Animal Experiment Center of the Institute of Materia Medica (IMM) at Chinese Academy of Medical Sciences (CAMS); the feeding condition was SPF grade, the temperature was 21±2 DEG C, relative humidity was 50±5%, lighting cycle was 12/12, and 5 per cage. All groups were given high-fat diet (70% of basal diet plus 20% of lard and 0.2% of cholesterol) and the animals were free to take food and drink. The feedstuff was produced by Beijing HFK Bioscience Co., Ltd. Body weight was recorded once every week during the experiment.
(§3) The animals were fasted for 12 hours and the following cells were extracted:
(§4) Recirculating blood cells: 50 ul of blood was taken by cardiocentesis, placed in 450 ul of heparin anticoagulant, 1 ml of red blood cell lysis buffer was added, lysed for 10 minutes, centrifuged at 1800 r for 3 min, the supernatant was aspirated, and 100 ul of PBS suspension cells were obtained for subsequent use. The mouse was taken blood from the angular vein to be dead and serum was separated and stored at −80 DEG C.
(§5) Antibodies were added to the above blood cells:
(§6) 3 ul of CD90-PE, 3 ul of B220-PE, 3 ul of CD49b-PE, 3 ul of NK1.1-PE, 3 ul of Ly-6G-PE, 6 ul of CD11b-percp, and 3 ul of Ly-6C-FITC, a single positive tube and a blank control tube were provided, they were incubated with smoothie for 30 min, washed 3 times with PBS, and re-selected cells with 400 ul of PBS, filtered, and flow cytometry was carried out. The mononuclear cells were identified as CD11b^hiCD90^loB220^loCD49b^loNK1.1^loLy-6G^lo cells. […]

[3] = system: circulating blood mononuclear cells; test: Circulating blood mononuclear cells of high-fat-fed apoE-/- mice (flow cytometry); conditions: gavage once a day, high-fat diet apoE-/- mice
Procedure: as §1, §2, §3, §4, §5, §6

[4] = IMM-H007 50 mg/kg, individual animal values (n=7), 50 mg/kg
[5] = IMM-H007 100 mg/kg, individual animal values (n=7), 100 mg/kg
[6] = IMM-H007 200 mg/kg, individual animal values (n=9), 200 mg/kg

## CC(=O)OCC1OC(n2cnc3c(Nc4cccc(O)c4)ncnc32)C(OC(C)=O)C1OC(C)=O (stereo not drawn) [IMM-H007, Triacetyl-3-Hydroxyphenyladenosine]
[1]; IMM-H007 50 mg/kg, 50 mg/kg
  circulating blood mononuclear cells: 6.63 and 5.31 and 7.58 and 11.2 and 10.1 and 11 and 10.4 and 9.08 and 6.95 and 8.24 and 9.21 and 6.5 and 8.91
[1]; IMM-H007 100 mg/kg, 100 mg/kg
  circulating blood mononuclear cells: 6.23 and 4.18 and 3.87 and 6.05 and 6.02 and 7.99 and 6.79 and 9.61 and 6.42 and 10.4 and 6.8 and 7.54 and 4.56
[1]; IMM-H007 200 mg/kg, 200 mg/kg
  circulating blood mononuclear cells: 4.42 and 6.33 and 9.94 and 9.51 and 10.3 (2×) and 6.28 and 9.61 and 9.85 and 10.8 and 8.52 and 9.23 and 5.7
[2]; [4]
  circulating blood inflammatory mononuclear cells: 0.33 and 0.86 and 0.18 and 0.23 and 0.89 and 0.16 and 0.49
[2]; [5]
  circulating blood inflammatory mononuclear cells: 0.31 and 0.19 and 0.32 and 0.29 and 0.30 and 0.89 and 0.26
[2]; [6]
  circulating blood inflammatory mononuclear cells: 0.19 and 0.35 and 0.17 and 0.20 and 0.30 and 0.13 and 0.15 and 0.28 and 0.21
[3]; [4]
  circulating blood mononuclear cells: 0.54 and 0.49 (2×) and 1.23 and 0.66 and 0.63 and 0.26
[3]; [5]
  circulating blood mononuclear cells: 0.79 and 0.48 and 0.30 and 0.14 and 0.29 and 0.27 and 0.25
[3]; [6]
  circulating blood mononuclear cells: 0.18 (2×) and 0.69 and 0.28 and 0.24 and 0.27 and 0.23 and 0.21 and 0.10
